Source: BindingDB's records for doi:10.1021/jm960324r (1996)
pIC50: −log10 of the molar value.

Test system: Herpes simplex virus (HSV) ribonucleotide reductase (RR) enzyme
Assay: Inhibitory effect was evaluated on Herpes simplex virus (HSV) ribonucleotide reductase (RR) enzyme.

SMILES: CC(C)C[C@@H](NC(=O)[C@@H](CC(=O)O)NC(=O)[C@H](CC(=O)N1CCCC1)NC(=O)[C@H](NC(=O)NC1[C@@H](C)CCC[C@@H]1C)C(C)C)C(=O)O
- pIC50: 7.70
